Converted amounts (≈) assume the structure as drawn. Read-outs that look alike come from different tables or passages of the source.
Legend:
[1] = test system: M. abscessus (n = 20) clinical isolates; assay: MIC against rapid-growing NTM clinical isolates; format: cell-based; conditions: Mycobacteroides abscessus; M. abscessus (n = 20); read-out: MIC90
[2] = test system: M. chelonae (n = 11) clinical isolates; assay: MIC against rapid-growing NTM clinical isolates; format: cell-based; conditions: M. chelonae (n = 11); for MIC90: Mycobacteroides chelonae, read-out: MIC90
[3] = test system: M. fortuitum (n = 11) clinical isolates; assay: MIC against rapid-growing NTM clinical isolates; format: cell-based; conditions: M. fortuitum (n = 11); for MIC90: Mycolicibacterium fortuitum, read-out: MIC90
Other NTM (n = 12) = assay: MIC against rapid-growing NTM clinical isolates; format: cell-based; conditions: Other NTM (n = 12); for MIC90: read-out: MIC90
[4] = format: cell-based; conditions: for Interpretation of checkerboard synergy testing: antibiotic in combination with CRS400393 (benzothiazole amides)
M. abscessus 1 = assay: MIC in MHB versus 7H9+OADC; format: cell-based
M. abscessus 21 = assay: MIC in MHB versus 7H9+OADC; format: cell-based
M. abscessus 79 = assay: MIC in MHB versus 7H9+OADC; format: cell-based
[5] = antibiotic in checkerboard combination with CRS400393

Row | Compound | MIC90 [1] [µg/mL] | MIC90 [2] [µg/mL] | MIC90 [3] [µg/mL] | MIC90 (Other NTM (n = 12)) [µg/mL] | FIC Index [4, 5] | Interpretation of checkerboard synergy testing [4] | further results
1 | NCC[C@H](O)C(=O)N[C@@H]1C[C@H](N)[C@@H](O[C@H]2O[C@H](CN)[C@@H](O)[C@H](O)[C@H]2O)[C@H](O)[C@H]1O[C@H]1O[C@H](CO)[C@@H](O)[C@H](N)[C@H]1O [Amikacin, reference compound] | 16 (≈ 27.3 µM) | > 16 | 2 (≈ 3.42 µM) | 16 (≈ 27.3 µM) | 1 | additive | MIC range [3]: 0.5 to 4 µg/mL; MIC range (Other NTM (n = 12)): 0.5 to 16 µg/mL; MIC (M. abscessus 1; M. abscessus 1, 7H9 + OADC (5 mg/mL albumin)): 16 µg/mL; MIC (M. abscessus 1; M. abscessus 1, MHB): 8 µg/mL (≈ 13.7 µM); MIC (M. abscessus 21; M. abscessus 21, 7H9 + OADC (5 mg/mL albumin)): 4 µg/mL; MIC (M. abscessus 21; M. abscessus 21, MHB): 2 µg/mL (≈ 3.42 µM); MIC (M. abscessus 79; M. abscessus 79, 7H9 + OADC (5 mg/mL albumin)): 4 µg/mL; MIC (M. abscessus 79; M. abscessus 79, MHB): 2 µg/mL (≈ 3.42 µM)
2 | CC[C@H]1OC(=O)[C@H](C)[C@@H](O[C@H]2C[C@@](C)(OC)[C@@H](O)[C@H](C)O2)[C@H](C)[C@@H](O[C@@H]2O[C@H](C)C[C@H](N(C)C)[C@H]2O)[C@](C)(O)C[C@@H](C)CN(C)[C@H](C)[C@@H](O)[C@]1(C)O [Azithromycin, reference compound] | > 8 | 0.5 (≈ 0.668 µM) | > 8 | > 8 | 1 | additive | MIC range [2]: 0.12 to 0.5 µg/mL; lung histology (Mabs 21; after 4 weeks of treatment): only minimal pathologic evidence of inflammatory infiltrates; reduction of lung CFU compared to the untreated group (Mabs 21; oral gavage 100 mg/kg, 4 weeks): 0.38 Log10 CFU
3 | COc1nc2ccc(Br)cc2cc1[C@@H](c1ccccc1)[C@@](O)(CCN(C)C)c1cccc2ccccc12 [Bedaquiline] |  |  |  |  | 2 | indifferent | Interpretation of checkerboard synergy testing ([4]; listed as bedaquiline): indifference
4 | CO[C@@]1(NC(=O)Cc2cccs2)C(=O)N2C(C(=O)O)=C(COC(N)=O)CS[C@@H]21 [Cefoxitin] |  |  |  |  | 0.56 | additive | 
5 | CC(C)/N=c1\cc2n(-c3ccc(Cl)cc3)c3ccccc3nc-2cc1Nc1ccc(Cl)cc1 [Clofazimine] |  |  |  |  | 0.52 | additive | 
6 | C[C@H]1c2cccc(O)c2C(=O)C2=C(O)[C@]3(O)C(=O)C(C(N)=O)=C(O)[C@@H](N(C)C)[C@@H]3[C@@H](O)[C@@H]21 [Doxycycline] |  |  |  |  | 2 | indifferent | Interpretation of checkerboard synergy testing ([4]; listed as doxycycline): indifference
7 | CC(=O)NC[C@H]1CN(c2ccc(N3CCOCC3)c(F)c2)C(=O)O1 [Linezolid, reference compound] | > 8 | 8 (≈ 23.7 µM) | > 8 | > 8 |  |  | MIC range [2]: 1 to 8 µg/mL; FIC Index [4]: 0.56
8 | Cc1cc(NS(=O)(=O)c2ccc(N)cc2)no1 [Sulfamethoxazole] |  |  |  |  |  |  | FIC Index [4]: 0.56
9 | NC[C@H]1O[C@H](O[C@H]2[C@H](O)[C@@H](O[C@H]3O[C@H](CO)[C@@H](O)[C@H](N)[C@H]3O)[C@H](N)C[C@@H]2N)[C@H](N)C[C@@H]1O [Tobramycin] |  |  |  |  | 0.75 | additive | 

From paper PMC6158578, “Optimization and Lead Selection of Benzothiazole Amide Analogs Toward a Novel Antimycobacterial Agent” (Frontiers in Microbiology, 2018)
